From patent publication US7323469B2, “7H-pyrrolo[2,3-d]pyrimidine derivatives” (Novartis AG, priority 2001, dated 2008) come the findings set out here.

pIC50: −log10 of the molar value.

The target of data set [1] is T1, EGF-R (HER-1) (Homo sapiens, UniProt P00533).
T1 construct: using the recombinant intracellular domain of the EGF-receptor [EGF-R ICD
Put plainly: Inhibition of EGF-R tyrosine kinase activity (recombinant intracellular domain, EGF-R ICD). Format: biochemical. As for the experimental part: J. Biochem. 207, 265-275 (1992)].
(§1) Inhibition of the Tyrosine Kinase Activity of EGF-R (HER-1), ErbB-2 (HER-2) and VEGF Receptor (KDR)
(§2) The inhibition tests are carried out as described above.

Data set [2] has as its target ErbB-2 (HER-2) (Homo sapiens, UniProt P04626). Put plainly: Inhibition of ErbB-2 tyrosine kinase activity. The class given is biochemical. As for the experimental part: The inhibitory activity (IC50) is approximately in the range of 0.001 to 0.5 μM. The inhibition of ErbB-2 tyrosine kinase (HER-2) can be determined, for example, analogously to the method used for EGF-R protein tyrosine kinase [see C. House et al., Europ. J. Biochem. 140, 363-367 (1984)]. The ErbB-2 kinase can be isolated, and its activity determined, by means of protocols known per se, for example in accordance with T. Akiyama et al., Science 232, 1644 (1986).
as §1, §2

Data set [3] has as its target VEGF Receptor (KDR) (Homo sapiens, UniProt P35968). Put plainly: Inhibition of KDR tyrosine kinase activity. The class given is biochemical. As for the experimental part: The compounds of the present invention are therefore very effective dual inhibitors of EGF- and VEGF-receptor family members. For inhibition of KDR and Flt-1 and inhibition of growth factor-induced proliferation of HUVECS see J. Wood et al., Cancer Res. 60, 2178-2189 (2000). The compounds of formula I inhibit e.g. the KDR tyrosine kinase activity with an IC50 of from about 1 nM to about 1 μM, especially from about 5 nM to about 0.5 μM.
as §1, §2

Broadly, the pIC50 is the negative decadic logarithm of the IC50, by convention in mol/L. By melting point is commonly meant the temperature, or range, at which the solid turns liquid.

Chain of VEGF Receptor (KDR) (P35968 20-1356): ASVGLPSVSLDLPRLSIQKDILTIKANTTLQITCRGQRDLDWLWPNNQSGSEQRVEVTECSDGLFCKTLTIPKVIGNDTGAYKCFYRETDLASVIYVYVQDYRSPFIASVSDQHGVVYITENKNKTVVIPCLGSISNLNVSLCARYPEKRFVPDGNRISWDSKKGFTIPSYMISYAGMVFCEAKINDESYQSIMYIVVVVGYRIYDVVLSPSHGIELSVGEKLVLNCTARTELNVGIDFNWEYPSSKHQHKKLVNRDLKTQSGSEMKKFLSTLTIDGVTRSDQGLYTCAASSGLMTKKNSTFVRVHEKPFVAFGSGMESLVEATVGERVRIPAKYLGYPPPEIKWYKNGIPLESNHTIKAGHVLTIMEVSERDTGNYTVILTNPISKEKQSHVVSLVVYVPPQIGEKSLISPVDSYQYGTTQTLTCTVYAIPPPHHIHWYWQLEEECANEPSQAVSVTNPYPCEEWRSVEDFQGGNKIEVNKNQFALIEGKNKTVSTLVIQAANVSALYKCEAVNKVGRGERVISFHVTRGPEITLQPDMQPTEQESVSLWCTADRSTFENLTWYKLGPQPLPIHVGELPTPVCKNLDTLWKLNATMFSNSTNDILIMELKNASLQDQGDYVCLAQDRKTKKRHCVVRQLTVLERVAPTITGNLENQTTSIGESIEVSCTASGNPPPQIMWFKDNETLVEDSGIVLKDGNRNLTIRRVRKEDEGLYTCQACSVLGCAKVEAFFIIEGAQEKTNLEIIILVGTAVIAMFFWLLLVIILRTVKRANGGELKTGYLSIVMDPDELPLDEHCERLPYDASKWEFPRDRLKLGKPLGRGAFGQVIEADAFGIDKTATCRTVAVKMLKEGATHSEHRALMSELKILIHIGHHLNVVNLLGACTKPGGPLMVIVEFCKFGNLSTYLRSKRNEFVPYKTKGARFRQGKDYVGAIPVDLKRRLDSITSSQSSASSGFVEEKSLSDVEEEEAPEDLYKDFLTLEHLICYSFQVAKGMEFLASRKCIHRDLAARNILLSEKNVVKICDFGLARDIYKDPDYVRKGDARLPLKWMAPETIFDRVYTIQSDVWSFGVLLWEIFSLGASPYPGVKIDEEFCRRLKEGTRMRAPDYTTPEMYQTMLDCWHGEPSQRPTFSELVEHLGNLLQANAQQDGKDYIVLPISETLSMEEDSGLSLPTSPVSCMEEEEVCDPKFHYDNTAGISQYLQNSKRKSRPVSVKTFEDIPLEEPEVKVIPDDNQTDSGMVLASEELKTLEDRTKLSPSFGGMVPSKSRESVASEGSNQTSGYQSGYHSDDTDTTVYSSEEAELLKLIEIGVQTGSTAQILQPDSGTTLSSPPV
T1 sequence (P00533 669-1210 limits assumed): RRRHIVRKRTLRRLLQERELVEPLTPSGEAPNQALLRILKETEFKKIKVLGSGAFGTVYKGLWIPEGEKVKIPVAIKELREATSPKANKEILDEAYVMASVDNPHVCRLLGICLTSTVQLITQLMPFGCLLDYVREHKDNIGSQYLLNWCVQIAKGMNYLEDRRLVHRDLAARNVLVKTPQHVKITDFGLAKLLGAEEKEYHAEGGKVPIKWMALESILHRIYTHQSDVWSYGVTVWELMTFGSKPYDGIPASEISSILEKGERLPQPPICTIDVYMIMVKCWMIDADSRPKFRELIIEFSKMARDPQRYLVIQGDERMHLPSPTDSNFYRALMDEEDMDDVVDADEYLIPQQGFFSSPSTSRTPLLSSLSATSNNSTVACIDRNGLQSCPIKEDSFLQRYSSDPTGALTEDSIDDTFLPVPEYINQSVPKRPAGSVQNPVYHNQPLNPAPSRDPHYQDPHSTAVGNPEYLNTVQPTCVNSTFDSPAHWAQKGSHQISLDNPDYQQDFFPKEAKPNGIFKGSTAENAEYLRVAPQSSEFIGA
Chain of ErbB-2 (HER-2) (P04626 23-1255): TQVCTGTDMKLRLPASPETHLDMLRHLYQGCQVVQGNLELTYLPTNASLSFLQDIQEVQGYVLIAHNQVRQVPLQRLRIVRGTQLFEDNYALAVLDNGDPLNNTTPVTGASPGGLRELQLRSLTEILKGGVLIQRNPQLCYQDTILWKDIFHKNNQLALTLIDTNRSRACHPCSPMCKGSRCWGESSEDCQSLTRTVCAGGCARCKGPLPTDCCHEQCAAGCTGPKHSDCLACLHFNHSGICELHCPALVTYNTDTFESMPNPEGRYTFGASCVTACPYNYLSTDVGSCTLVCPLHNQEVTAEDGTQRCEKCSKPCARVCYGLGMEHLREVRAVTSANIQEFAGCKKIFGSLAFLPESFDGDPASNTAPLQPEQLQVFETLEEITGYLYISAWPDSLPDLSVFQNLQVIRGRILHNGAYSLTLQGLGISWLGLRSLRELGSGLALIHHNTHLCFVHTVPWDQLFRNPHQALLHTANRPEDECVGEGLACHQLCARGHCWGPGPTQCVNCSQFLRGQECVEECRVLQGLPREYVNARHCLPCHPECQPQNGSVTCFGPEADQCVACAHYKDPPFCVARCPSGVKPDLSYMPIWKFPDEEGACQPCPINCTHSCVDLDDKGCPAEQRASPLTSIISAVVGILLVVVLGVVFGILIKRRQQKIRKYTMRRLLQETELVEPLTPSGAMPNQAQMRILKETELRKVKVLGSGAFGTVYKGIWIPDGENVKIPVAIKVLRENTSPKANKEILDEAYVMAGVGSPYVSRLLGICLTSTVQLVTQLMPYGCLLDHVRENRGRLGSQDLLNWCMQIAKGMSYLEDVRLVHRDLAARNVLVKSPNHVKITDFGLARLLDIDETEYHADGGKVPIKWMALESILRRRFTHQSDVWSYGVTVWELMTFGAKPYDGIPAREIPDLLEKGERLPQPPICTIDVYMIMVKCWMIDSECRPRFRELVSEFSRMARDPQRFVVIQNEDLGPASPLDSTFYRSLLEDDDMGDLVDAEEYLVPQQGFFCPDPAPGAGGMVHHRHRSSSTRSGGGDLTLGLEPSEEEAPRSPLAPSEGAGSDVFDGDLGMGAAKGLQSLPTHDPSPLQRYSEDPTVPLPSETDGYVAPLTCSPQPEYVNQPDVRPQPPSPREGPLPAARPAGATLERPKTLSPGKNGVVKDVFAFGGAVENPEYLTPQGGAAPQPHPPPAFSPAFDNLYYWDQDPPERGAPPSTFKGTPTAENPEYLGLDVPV

Turning to `Cc1cccc(CNc2ncnc3[nH]c(-c4ccc(CN(C)C)cc4)cc23)c1` [107f^], the pIC50 in data set [1] is 8.60; in data set [2] it was 7.35; in data set [3], 7.72.
For the molecule `CCN1CCN(Cc2ccc(-c3cc4c(Nc5ccc(F)c(Cl)c5)ncnc4[nH]3)cc2)CC1` [Example 3, (3-Chloro-4-fluoro-phenyl)-{6-[4-(4-ethyl-piperazin-1-ylmethyl)-phenyl]-7H-pyrrolo[2,3-d]pyrimidin-4-yl}-amine], the melting point is 266 to 268 °C. In data set [1], the pIC50 was 8.51. This molecule also gave a pIC50 in data set [2] of 8.10. In data set [3], the pIC50 was 7.97.
For `Fc1ccc(Nc2ncnc3[nH]c(-c4ccc(CN5CCCC5)cc4)cc23)cc1Cl` [Example 4, (3-Chloro-4-fluoro-phenyl)-[6-(4-pyrrolidin-1-ylmethyl-phenyl)-7H-pyrrolo[2,3-d]pyrimidin-4-yl]-amine], in that order: 268 to 270 °C, 8.51, 8.14 and 8.03.
In turn, `CN1CCN(Cc2ccc(-c3cc4c(Nc5ccc(F)c(Cl)c5)ncnc4[nH]3)cc2)CC1` [Example 5, (3-Chloro-4-fluoro-phenyl)-{6-[4-(4-methyl-piperazin-1-ylmethyl)-phenyl]-7H-pyrrolo[2,3-d]pyrimidin-4-yl}-amine] showed a melting point of 264 to 266 °C. Moreover, the pIC50 in data set [1] is 8.51. Further, in data set [2], the pIC50 is 8.17. Besides, the pIC50 in data set [3] was 8.22.
As for `Fc1ccc(Nc2ncnc3[nH]c(-c4ccc(CN5CCCCC5)cc4)cc23)cc1Cl` [Example 6, (3-Chloro-4-fluoro-phenyl)-[6-(4-piperidin-1-ylmethyl-phenyl)-7H-pyrrolo[2,3-d]pyrimidin-4-yl]-amine], the melting point lay within 267 to 269 °C. Besides, the pIC50 in data set [1] is 8.15. Besides, the pIC50 in data set [2] is 8.30. In data set [3], the pIC50 is 7.90.
`Fc1ccc(Nc2ncnc3[nH]c(-c4ccc(CN5CCOCC5)cc4)cc23)cc1Cl` [Example 7, (3-Chloro-4-fluoro-phenyl)-[6-(4-morpholin-4-ylmethyl-phenyl)-7H-pyrrolo[2,3-d]pyrimidin-4-yl]-amine] returned a melting point of 298 to 300 °C. Moreover, the pIC50 in data set [1] is 8.40. In addition, the pIC50 in data set [2] was 7.96. The same molecule gave a pIC50 in data set [3] of 7.24.
For the molecule `Fc1ccc(Nc2ncnc3[nH]c(-c4ccc(CNC5CCOCC5)cc4)cc23)cc1Cl` [Example 8a, (3-Chloro-4-fluoro-phenyl)-(6-{4-[(tetrahydro-pyran-4-ylamino)-methyl]-phenyl}-7H-pyrrolo[2,3-d]pyrimidin-4-yl)-amine], the melting point lay in the range of 288 to 290 °C. Besides, the pIC50 in data set [1] is 8.62. Also, in data set [2], the pIC50 is 8.03. The same molecule showed a pIC50 in data set [3] of 7.77.
In turn, `CCN(CC)Cc1ccc(-c2cc3c(N[C@H](C)c4ccccc4)ncnc3[nH]2)cc1` [Example 10, [6-(4-Diethylamino-methyl-phenyl)-7H-pyrrolo[2,3-d]pyrimidin-4-yl]-((R)-1-phenyl-ethyl)-amine] came in with a melting point of 246 to 248 °C. Also, the pIC50 in data set [2] was 8.05. In data set [3], the pIC50 is 7.53.
Consider `CCN1CCN(Cc2ccc(-c3cc4c(N[C@H](C)c5ccccc5)ncnc4[nH]3)cc2)CC1` [Example 11, {6-[4-(4-Ethyl-piperazin-1-ylmethyl)-phenyl]-7H-pyrrolo[2,3-d]pyrimidin-4-yl}-((R)-1-phenyl-ethyl)-amine], for which the negative-log IC50 (pIC50) in data set [2] was 8.30; in data set [3], 7.30.
`C[C@@H](Nc1ncnc2[nH]c(-c3ccc(CN4CCCC4)cc3)cc12)c1ccccc1` [Example 12, ((R)-1-Phenyl-ethyl)-[6-(4-pyrrolidin-1-ylmethyl-phenyl)-7H-pyrrolo[2,3-d]pyrimidin-4-yl]-amine] displayed a melting point of 254 to 256 °C. In addition, the negative-log IC50 (pIC50) in data set [1] was 8.33. Besides, the pIC50 in data set [2] was 8.30. In data set [3], the pIC50 was 6.86.
Regarding `C[C@@H](Nc1ncnc2[nH]c(-c3ccc(CN(C)C)cc3)cc12)c1ccccc1` [Example 13, [6-(4-Dimethylamino-methyl-phenyl)-7H-pyrrolo[2,3-d]pyrimidin-4-yl]-((R)-1-phenyl-ethyl)-amine], the pIC50 in data set [1] was 8.22; in data set [2], 8.30; in data set [3], 7.06.
Turning to `COc1ccc(Nc2ncnc3[nH]c(-c4ccc(CN5CCOCC5)cc4)cc23)cn1` [Example 111, (6-Methoxy-pyridin-3-yl)-[6-(4-morpholin-4-ylmethyl-phenyl)-7H-pyrrolo[2,3-d]pyrimidin-4-yl]-amine], the melting point lay in the range of 263 to 264 °C.
With `COc1ccc(Nc2ncnc3[nH]c(-c4ccc(CN5CCN(C)CC5)cc4)cc23)cn1` [Example 112, (6-Methoxy-pyridin-3-yl)-{6-[4-(4-methyl-piperazin-1-ylmethyl)-phenyl]-7H-pyrrolo[2,3-d]pyrimidin-4-yl}-amine], the melting point lay within 241 to 242 °C.
As to `CN(C)Cc1ccc(-c2cc3c(Nc4ccc(=O)[nH]c4)ncnc3[nH]2)cc1` [Example 116, 5-[6-(4-Dimethylaminomethyl-phenyl)-7H-pyrrolo[2,3-d]pyrimidin-4-ylamino]-1H-pyridin-2-one], the pIC50 is 7.41 in data set [1], 7.81 in data set [2] and 7.81 in data set [3].
For the molecule `CCN1CCN(Cc2ccc(-c3cc4c(NCc5ccnc(OC)c5)ncnc4[nH]3)cc2)CC1` [Example 122, (2-Methoxy-pyridin-4-ylmethyl)-{6-[4-(4-ethyl-piperazin-1-ylmethyl)-phenyl]-7H-pyrrolo[2,3-d]pyrimidin-4-yl}-amine], the melting point is 210 to 212 °C.
`COc1cc(CNc2ncnc3[nH]c(-c4ccc(CN(C)C)cc4)cc23)ccn1` [Example 124, (2-Methoxy-pyridin-4-ylmethyl)-{6-[4-(dimethylamino-methyl)-phenyl]-7H-pyrrolo[2,3-d]pyrimidin-4-yl}-amine] displayed a melting point of 210 to 211 °C.
On the same count and under the same terms, as for `COc1cc(CNc2ncnc3[nH]c(-c4ccc(CN5CCN(C)CC5)cc4)cc23)ccn1` [Example 125, (2-Methoxy-pyridin-4-ylmethyl)-{6-[4-(4-methyl-piperazin-1-ylmethyl)-phenyl]-7H-pyrrolo[2,3-d]pyrimidin-4-yl}-amine], the figure is 211 to 212 °C.
Molecule `CCN1CCN(Cc2ccc(-c3cc4c(NCc5cc[nH]c(=O)c5)ncnc4[nH]3)cc2)CC1` [Example 129, 4-({6-[4-(4-Ethyl-piperazin-1-ylmethyl)-phenyl]-7H-pyrrolo[2,3-d]pyrimidin-4-ylamino}-methyl)-1H-pyridin-2-one] showed a melting point of 291 to 292 °C.
Turning to `Cc1cc2c(F)c(Oc3ncnc4[nH]c(-c5ccc(CN6CCOCC6)cc5)cc34)ccc2[nH]1` [Example 143, 4-(4-Fluoro-2-methyl-1H-indol-5-yloxy)-6-(4-morpholin-4-ylmethyl-phenyl)-7H-pyrrolo[2,3-d]pyrimidine], the melting point lay in the range of 280 to 282 °C.
Regarding `C[C@@H](Nc1ncnc2[nH]c(-c3ccc(CN4CCNCC4)cc3)cc12)c1ccccc1` [Example 145, ((R)-1-Phenyl-ethyl)-[6-(4-piperazin-1-ylmethyl-phenyl)-7H-pyrrolo[2,3-d]pyrimidin-4-yl]-amine], the melting point is 240 to 242 °C.
